Measurements published in patent publication US11542266B1, “Substituted piperidines as BTK inhibitors” (HAISCO PHARMACEUTICALS PTE. LTD., priority 2019, dated 2023).

Legend:
SU-DHL-4 cells = experiment: Inhibition of cell proliferation, SU-DHL-4 cells (Cell Viability Assay, 72 h); assay type: cell-based, human; conditions: Homo sapiens
In short: (§1)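 RPMI1640 + 10% FBS cultures seeded at 20000/well (SU-DHL-4) or 5000/well (Mino, SU-DHL-6), exposed to compound dilutions in triplicate for 72 h at 37 °C, 5% CO2, DMSO vehicle control. Viability read by luminescent reagent; IC50 from dose-response and Max inhi. % = (1 − T72 treated/T72 vehicle)×100 at top concentration.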

BTK protein = BTK protein (Mus musculus (Mouse), UniProt P35991); experiment: Detection of BTK protein degradation in spleen of mice; assay type: in vivo; conditions: po, 72 h, female ICR mice, 3 consecutive days of intragastric administration, read-out: DD50 value of compounds on BTK protein degradation in spleen of mice
Experimental: Female ICR mice, 6-8 weeks old, were purchased from BEIJING VITAL RIVER LABORATORY ANIMAL TECHNOLOGY CO., LTD, and the experiment was started after 3 days of adaptation. After 3 consecutive days of intragastric administration of different doses of the compound, the spleen of mice was taken, the spleen cells were collected, and RIPA lysis buffer (Beyotime, Cat. P0013B) was added. The cells were lysed on ice for 15 minutes, and centrifuged at 12000 rpm at 4° C. for 10 minutes. The protein sample of the supernatant was collected, and the protein was quantified by using the BCA kit (Beyotime, Cat. P0009), and then the protein was diluted to 0.25 mg/mL. The expressions of BTK (CST, Cat. 8547S) and the internal reference β-actin (CST, Cat. 3700S) were detected using a fully automated western blot quantitative analyzer (Proteinsimple). The expression level of BTK relative to the internal reference was calculated using Compass software, and the DD50 value was calculated using Origen9.2 software according to formula (4). Specifically, the BTKadministration denoted the expression level of BTK in administration groups at different doses, and the BTKvehicle denoted the expression level of BTK in the vehicle control group. BTK %=BTKadministration/BTKvehicle×100 formula (4)

OCI-LY10 cells = experiment: Inhibition of cell proliferation, OCI-LY10 cells (Cell Viability Assay, 72 h); assay type: cell-based; conditions: Homo sapiens
Experimental: (§2) OCI-LY10 and TMD-8 cells, in the culture medium of RPMI1640+10% FBS, were cultured in an incubator at 37° C. under 5% CO2. Cells were plated in a 96-well plate. Specifically, OCI-LY10 cells were at 10000/well, and TMD-8 cells were at 8000/well, with 90 μL/well. These cells were cultured at 37° C. under 5% CO2 overnight. On the next day, 10 μL of the compounds at different concentrations were added to each well. There were 3 replicate wells for each concentration, and the last column, added with DMSO, was used as a vehicle control group. The cultures were continued for 72 hours at 37° C. under 5% CO2. After 72 hours, 50 μL of detection reagent (Cell Viability Assay, Promega, G7573) was added to each well, and the cultures were uniformly mixed for 2 minutes, and incubated at room temperature for 10 minutes. The fluorescence signal value was measured with an Envision2104 plate reader (PerkinElmer). The inhibition rate was calculated using formula (2), wherein RLUcompound was the readout of the drug treated group, RLUcontrol was the average value of the vehicle control group, and RLUblank was the average value of the cell-free wells. The IC50 value was calculated using GraphPad Prism software. IR (%)=(1−(RLUcompound-RLUblank)/(RLUcontrol-RLUblank))*100% formula (2)

[1] = Pharmacokinetic experiment in mice; assay type: in vivo; conditions: mouse, plasma, male ICR mice
Experimental: (§3) Objective: In this experiment, a single dose of each test compound was administered to ICR mice intravenously and intragastrically, the concentrations of the test compound in plasma of mice were measured, and the pharmacokinetic characteristics and bioavailability of the test compound in mice were evaluated.
Experimental animals: Male ICR mice, 20-25 g, 6-8 weeks old, 24 mice/compound. The experimental animals were purchased from CHENGDU DOSSY EXPERIMENTAL ANIMALS CO., LTD.
Experimental method: On the day of the experiment, 24 ICR mice were randomly grouped according to their body weight. The animals were fasted with water available for 12 to 14 hours one day before the administration of a test compound, and were fed 4 hours after the administration.
Sampling: Before and after the administration, 0.06 ml of blood was taken from the orbit of the mice under isoflurane anesthesia, and placed in an EDTAK2 centrifuge tube. Centrifugation was carried out at 5000 rpm at 4° C. for 10 min and the plasma was collected.
Time points for plasma collection in G1 group: 0, 5 min, 15 min, 30 min, 1 h, 2 h, 4 h, 6 h, 8 h, and 24 h;
Time points for plasma collection in G2 group: 0, 15 min, 30 min, 1 h, 2 h, 4 h, 6 h, 8 h, and 24 h;
(§4) Before analysis and detection, all samples were stored at −80° C. The samples were analyzed quantitatively by LC-MS/MS.

SU-DHL-6 cells = experiment: Inhibition of cell proliferation, SU-DHL-6 cells (Cell Viability Assay, 72 h); assay type: cell-based; conditions: Homo sapiens
In short: as §1

Mino cells = experiment: Inhibition of cell proliferation, Mino cells (Cell Viability Assay, 72 h); assay type: cell-based, human; conditions: Homo sapiens
In short: as §1

[2] = Pharmacokinetic experiment in rats (i.g. vehicle 0.5% MC); assay type: in vivo; conditions: Sprague-Dawley (SD), rat, plasma, po, male SD rats
In short: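 Male SD rats (200–250 g, 6–8 weeks, n=6 per compound) were dosed once i.v. or intragastrically after a 12–14 h fast and fed 4 h post-dose. Orbital blood was drawn into EDTA-K2 tubes at 0–24 h (from 5 min i.v., from 15 min oral). Plasma was quantified by LC-MS/MS for PK parameters and bioavailability.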

TMD-8 cells = experiment: Inhibition of cell proliferation, TMD-8 cells (Cell Viability Assay, 72 h); assay type: cell-based; conditions: Homo sapiens, TMD8
Experimental: as §2

[3] = Pharmacokinetic experiment in rats (i.g. vehicle DMSO/Solutol/PEG-400/SBE-β-CD); assay type: in vivo; conditions: Sprague-Dawley (SD), rat, plasma, po, male SD rats
Experimental: as §3, with “SD rats” for “ICR mice”, “rats” for “mice”
Experimental animals: Male SD rats, 200-250 g, 6-8 weeks old, 6 rats/compound. The experimental animals were purchased from CHENGDU DOSSY EXPERIMENTAL ANIMALS CO., LTD.
Experimental method: On the day of the experiment, 6 SD rats were randomly grouped according to their body weight. The animals were fasted with water available for 12 to 14 hours one day before the administration of a test compound, and were fed 4 hours after the administration.
Sampling: Before and after the administration, 0.1 mL of blood was taken from the orbit of the rats under isoflurane anesthesia, and placed in an EDTAK2 centrifuge tube. Centrifugation was carried out at 5000 rpm at 4° C. for 10 min and the plasma was collected.
Time points for plasma collection in G1 group: 0, 5 min, 15 min, 30 min, 1 h, 2 h, 4 h, 6 h, 8 h, and 24 h.
Time points for plasma collection in G2 group: 0, 15 min, 30 min, 1 h, 2 h, 4 h, 6 h, 8 h, and 24 h.
as §4

BTK protein, sequence (P35991 whole entry): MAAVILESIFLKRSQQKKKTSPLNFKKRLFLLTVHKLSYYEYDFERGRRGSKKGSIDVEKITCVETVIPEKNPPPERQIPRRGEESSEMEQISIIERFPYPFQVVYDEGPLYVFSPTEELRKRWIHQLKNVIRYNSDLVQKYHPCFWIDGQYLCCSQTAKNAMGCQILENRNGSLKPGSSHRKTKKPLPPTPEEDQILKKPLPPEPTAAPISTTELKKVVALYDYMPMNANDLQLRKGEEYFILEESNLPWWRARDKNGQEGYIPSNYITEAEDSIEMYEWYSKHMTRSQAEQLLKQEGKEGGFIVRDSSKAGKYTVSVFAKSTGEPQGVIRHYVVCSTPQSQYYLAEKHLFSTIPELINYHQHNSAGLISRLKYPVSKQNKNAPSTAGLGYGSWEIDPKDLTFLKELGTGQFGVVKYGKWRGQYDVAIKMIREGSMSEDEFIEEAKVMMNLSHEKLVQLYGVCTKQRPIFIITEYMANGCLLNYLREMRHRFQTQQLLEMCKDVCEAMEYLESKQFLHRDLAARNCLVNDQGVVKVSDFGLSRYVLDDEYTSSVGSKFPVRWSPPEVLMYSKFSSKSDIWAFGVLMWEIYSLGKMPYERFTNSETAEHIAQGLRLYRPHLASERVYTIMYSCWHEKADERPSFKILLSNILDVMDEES

IC50 (SU-DHL-4 cells) [nM] | ED50 (BTK protein) [mg/kg] | IC50 (OCI-LY10 cells) [nM] | bioavailability ([1]; oral, i.g. 10 mg/kg vs i.v. 5 mg/kg) [%] | AUC(0-t) ([1]; po, i.g. 10 mg/kg, vehicle 0.5% MC) [ng·h/mL] | IC50 (SU-DHL-6 cells) [nM] | bioavailability ([2]; i.g. 20 mg/kg (0.5% MC) vs i.v. 5 mg/kg) [%] | AUC(0-t) ([2]; i.g. 20 mg/kg, vehicle 0.5% MC, read-out: AUC0-t) [ng·h/mL] | bioavailability ([3]; i.g. 20 mg/kg (DMSO/Solutol/PEG-400/SBE-β-CD) vs i.v. 5 mg/kg) [%] | AUC(0-t) ([3]; i.g. 20 mg/kg, vehicle 5% DMSO + 5% Solutol + 30% PEG-400 + 60% (20%SBE-β-CD)) [ng·h/mL] | Structure (SMILES) | IC50 (Mino cells) [nM] | IC50 (TMD-8 cells) [nM]
367 | 3.8 | 5 | 10.8 | 2430 | 744 | 6.57 ± 0.77 | 2340 ± 274 | – | – | Nc1ncnc2c1c(-c1ccc(Oc3ccccc3)cc1)nn2C1CCN(C2CN(C3CN(c4ccc5c(c4)C(=O)N(C4CCC(=O)NC4=O)C5=O)C3)C2)CC1 (stereo not drawn) [Compound 17, 5-[3-[3-[4-[4-amino-3-(4-phenoxyphenyl)pyrazolo[3,4-d]pyrimidin-1-yl]-1-piperidyl]azetidin-1-yl]azetidin-1-yl]-2-(2,6-dioxo-3-piperidyl)isoindoline-1,3-dione] | 20 | 22
110 | 1.4 | 3 | – | – | 125 | – | – | 19.7 ± 8.5 | 3440 ± 1490 | Nc1ncnc2c1c(-c1ccc(Oc3ccccc3)cc1)nn2[C@@H]1CCN(C2CCN(C3CN(c4ccc5c(c4)C(=O)N(C4CCC(=O)NC4=O)C5=O)C3)CC2)C[C@@H]1F (stereo partly drawn) [Compound 45, 5-(3-((3S,4R)-4-(4-amino-3-(4-phenoxyphenyl)-1H-pyrazolo[3,4-d]pyrimidin-1-yl)-3-fluoro-[1,4′-bipiperidin]-1′-yl)azetidin-1-yl)-2-(2,6-dioxopiperidin-3-yl)isoindoline-1,3-dione] | 9.6 | 16
